The term chromatographic logP denotes a lipophilicity value derived from retention on a column.

Data set [1] in a line: log P by HPLC on reversed phase columns (EEC directive 79/831 Annex V.A8). Format: physicochemical. Conditions: method [a]: LC-MS at pH 2.7, 0.1% formic acid in water / acetonitrile, gradient 10% to 95% acetonitrile; for chromatographic logP: reversed phase HPLC columns. The method, then:
Measurement of log P values was performed according EEC directive 79/831 Annex V.A8 by HPLC (High Performance Liquid Chromatography) on reversed phase columns with the following methods: ^[a]Measurement of LC-MS was done at pH 2.7 with 0.1% formic acid in water and with acetonitrile (contains 0.1% formic acid) as eluent with a linear gradient from 10% acetonitrile to 95% acetonitrile. Calibration was done with not branched alkan2-ones (with 3 to 16 carbon atoms) with known log P-values (measurement of log P values using retention times with linear interpolation between successive alkanones). lambda-maX-values were determined using UV-spectra from 200 nm to 400 nm and the peak values of the chromatographic signals.

In the next data set the test system is Alternaria brassicae. In words: In vivo preventive test on Alternaria brassicae (leaf spot on radish). Conditions: dose 500 ppm, radish plants, preventive spray, grading 6 days after contamination. The method, then: Radish plants (“Pernod Clair” variety), sown in starter cups on a 50/50 peat soil-pozzolana substrate and grown at 17° C., are treated at the cotyledon stage by spraying with the active ingredient prepared as described above. Plants, used as controls, are treated with the mixture of acetone/tween/DMSO/water not containing the active material. After 24 hours, the plants are contaminated by spraying the cotyledons with an aqueous suspension of Alternaria brassicae spores (50 000 spores per ml). The spores are collected from a 15-day-old culture. The contaminated radish plants are incubated at 20° C. and at 100% relative humidity. Grading (% of efficacy) is carried out 6 days after the contamination, in comparison with the control plants.

A further data set relates to Pyrenophora teres. The data set is described as follows: In vivo preventive test on Pyrenophora teres (net blotch on barley). Conditions: dose 500 ppm, barley plants, preventive spray, grading 14 days after contamination. The method, then: Barley plants (“Plaisant” variety), sown in starter cups on a 50/50 peat soil-pozzolana substrate and grown at 22° C., are treated at the 1-leaf stage (10 cm height) by spraying with the active ingredient prepared as described above. Plants, used as controls, are treated with the mixture of acetone/tween/DMSO/water not containing the active material. After 24 hours, the plants are contaminated by spraying the leaves with an aqueous suspension of Pyrenophora teres spores (12 000 spores per ml). The spores are collected from a 12-day-old culture. The contaminated barley plants are incubated for 48 hours at 20° C. and at 100% relative humidity, and then for 12 days at 20° C. at 70-80% relative humidity. Grading (% of efficacy) is carried out 14 days after the contamination, in comparison with the control plants.

A further data set relates to Uromyces appendiculatus. The data set is described as follows: In vivo preventive test on Uromyces appendiculatus (bean rust). Conditions: dose 500 ppm, bean plants, preventive spray, grading 11 days after contamination. The method, then:
The active ingredients tested are prepared by homogenization in a mixture of acetone/tween/DMSO, and then diluted with water to obtain the desired active material concentration.
Bean plants (“Saxa” variety), sown in starter cups on a 50/50 peat soil-pozzolana substrate and grown at 24° C., are treated at the 2-leaf stage (9 cm height) by spraying with the active ingredient prepared as described above. Plants, used as controls, are treated with the mixture of acetone/tween/DMSO/water not containing the active material.
After 24 hours, the plants are contaminated by spraying the leaves with an aqueous suspension of Uromyces appendiculatus spores (150 000 spores per ml). The spores are collected from infected plants and are suspended in water containing 2.5 ml/l of Tween 80 at 10%. The contaminated bean plants are incubated for 24 hours at 20° C. and at 100% relative humidity, and then for 10 days at 20° C. and at 70-80% relative humidity.
Grading (% of efficacy) is carried out 11 days after the contamination, in comparison with the control plants.

The test system of the next data set is Puccinia recondita. In words: In vivo preventive test on Puccinia recondita (brown rust on wheat). The settings on record: wheat plants, preventive spray, grading 12 days after contamination. The method, then:
Wheat plants (“Scipion” variety), sown in starter cups on a 50/50 peat soil-pozzolana substrate and grown at 22° C., are treated at the 1-leaf stage (10 cm height) by spraying with the active ingredient prepared as described above. Plants, used as controls, are treated with the mixture of acetone/tween/DMSO/water not containing the active material. After 24 hours, the plants are contaminated by spraying the leaves with an aqueous suspension of Puccinia recondita spores (100 000 spores per ml). The spores are collected from an infected plant and are suspended in water containing 2.5 ml/l of Tween 80 at 10%. The contaminated wheat plants are incubated for 24 hours at 20° C. and at 100% relative humidity, and then for 10 days at 20° C. and at 70-80% relative humidity. Grading (% of efficacy) is carried out 12 days after the contamination, in comparison with the control plants.

In the next data set the test system is Botrytis cinerea. The data set is described as follows: In vivo preventive test on Botrytis cinerea (grey mould). Conditions: gherkin plants, preventive spray, grading 4 to 5 days after contamination. Here is the method: Gherkin plants (“Vert petit de Paris” variety), sown in starter cups on a 50/50 peat soil-pozzolana substrate and grown at 24° C., are treated at the Z11 cotyledon stage by spraying with the active ingredient prepared as described above. Plants, used as controls, are treated with the mixture of acetone/tween/DMSO/water not containing the active material. After 24 hours, the plants are contaminated by spraying the cotyledons with an aqueous suspension of cryopreserved Botrytis cinerea spores (50 000 spores per ml). The spores are suspended in a nutrient solution composed of 10 g/L of PDB, 50 g/L of D-Fructose, 2 g/L of NH4NO3 and 1 g/L of KH2PO4. The contaminated gherkin plants are incubated at 17° C. and at 90% relative humidity. Grading (% of efficacy) is carried out 4 to 5 days after the contamination, in comparison with the control plants.

The test system of the next data set is Sphaerotheca fuliginea. In words: In vivo preventive test on Sphaerotheca fuliginea (powdery mildew on cucurbits). The settings on record: dose 100 ppm, gherkin plants, preventive spray, grading 12 days after contamination. The method, then: Gherkin plants (“Vert petit de Paris” variety), sown in starter cups on a 50/50 peat soil-pozzolana substrate and grown at 24° C., are treated at the Z11 cotyledon stage by spraying with the active ingredient prepared as described above. Plants, used as controls, are treated with the mixture of acetone/tween/DMSO/water not containing the active material. After 24 hours, the plants are contaminated by spraying the cotyledons with an aqueous suspension of Sphaerotheca fuliginea spores (100 000 spores per ml). The spores are collected from infected plants. The contaminated gherkin plants are incubated at about 20° C. and at 70-80% relative humidity. Grading (% of efficacy) is carried out 12 days after the contamination, in comparison with the control plants.

The next data set deals with Septoria tritici. In words: In vivo preventive test on Septoria tritici (leaf spot on wheat). The settings on record: dose 100 ppm, wheat plants, preventive spray, grading 24 days after contamination. Here is the method: Wheat plants (“Scipion” variety), sown in starter cups on a 50/50 peat soil-pozzolana substrate and grown at 22° C., are treated at the 1-leaf stage (10 cm height) by spraying with the active ingredient prepared as described above. Plants, used as controls, are treated with the mixture of acetone/tween/DMSO/water not containing the active material. After 24 hours, the plants are contaminated by spraying the leaves with an aqueous suspension of cryopreserved Septoria tritici spores (500 000 spores per ml). The contaminated wheat plants are incubated for 72 hours at 18° C. and at 100% relative humidity, and then for 21 days at 90% relative humidity. Grading (% of efficacy) is carried out 24 days after the contamination, in comparison with the control plants.

As for `CC1CCc2c(NC(=O)c3cccnc3C(F)F)cccc2C1C` (mixture of isomers) [Example 6], the logP in data set [1] was 3.24^[a].

On to `CC1(C)CCc2cccc(NC(=O)c3cccnc3C(F)F)c2C1` [Example 1, 2-(difluoromethyl)-N-(7,7-dimethyl-5,6,7,8-tetrahydronaphthalen-1-yl)nicotinamide], for which the chromatographic logP in data set [1] amounted to 3.23.

`CC1c2cccc(NC(=O)c3cccnc3C(F)F)c2CCC1(C)C` (stereo not shown) [Example 2]: the logP in data set [1] is 3.55^[a]. On the same count and under the same terms, next, `CC1CCC(C)(C)c2cccc(NC(=O)c3cccnc3C(F)F)c21` (stereo not shown) [Example 3]: 3.37^[a].

Consider `C=C1c2cccc(NC(=O)c3cccnc3C(F)F)c2CCC1(C)C` [Example 4], for which the biological efficacy in the data set on Alternaria brassicae is given as no less than 70%. In data set [1], the logP is 3.33^[a]. In the case of `CC1(C)CCc2c(NC(=O)c3cccnc3C(F)F)cccc2C1=O` [Example 5], the logP in data set [1] was 2.28^[a]. Besides, the biological efficacy with Pyrenophora teres is no less than 70%. In turn, `Cc1cnc(C(F)F)c(C(=O)Nc2cccc3c2CCC(C)(C)C3)c1` [Example 7, 2-(difluoromethyl)-N-(6,6-dimethyl-5,6,7,8-tetrahydronaphthalen-1-yl)-5-methylnicotinamide] yielded a chromatographic logP in data set [1] of 3.52. Regarding `CON=C1CCCc2c(NC(=O)c3cc(C)cnc3C(F)F)cccc21` [Example 8], in data set [1], the logP is 2.75^[a]. On to `CON=C1CCCc2c(NC(=O)c3cccnc3C(F)F)cccc21` [Example 9], for which the biological efficacy in the data set with Uromyces appendiculatus is recorded as no less than 70%; in the data set on Alternaria brassicae, no less than 90%; in the data set on Puccinia recondita (dose 500 ppm), no less than 70%; with Botrytis cinerea (dose 500 ppm) it was no less than 70%. Besides, the logP in data set [1] was 2.49^[a]. `Cc1cnc(C(F)F)c(C(=O)Nc2ccc(F)c3c2CCCC3(C)C)c1` [Example 10]: the logP in data set [1] was 3.57^[a]. On the same count and under the same terms, next, `CC1(C)CCCc2c(NC(=O)c3ccc(Cl)nc3C(F)F)ccc(F)c21` [Example 11]: 3.94^[a]; `CC1(C)CCCc2c(NC(=O)c3cccnc3C(F)F)ccc(F)c21` [Example 12]: 3.29^[a]. As for `CCON=C1CCCc2c(NC(=O)c3cc(C)cnc3C(F)F)cccc21` [Example 13], the logP in data set [1] was 3.19^[a]. Same read-out and setting: as for `CC1(C)CCc2c(cccc2NC(=O)c2cccnc2C(F)F)C1` [Example 14], the figure is 3.23^[a]; as for `CC1(C)CCCc2c(NC(=S)c3cccnc3C(F)F)ccc(F)c21` [Example 15], 3.79^[a]. Consider `CCON=C1CCCc2c(NC(=O)c3cccnc3C(F)F)cccc21` [Example 16], for which the logP in data set [1] is 2.90^[a]. Turning to `Cc1cnc(C(F)F)c(C(=S)Nc2cccc3c2CCC(C)(C)C3)c1` [Example 17, 2-(difluoromethyl)-N-(6,6-dimethyl-5,6,7,8-tetrahydronaphthalen-1-yl)-5-methylpyridine-3-carbothioamide], the chromatographic logP in data set [1] was determined as 3.94. As to `CC(C)C1CCCc2c(NC(=O)c3cccnc3C(F)F)cccc21` (stereo not shown) [Example 18], the logP in data set [1] is 3.60^[a]. Also, the values for the biological efficacy in the data set with Puccinia recondita (dose 100 ppm), with Sphaerotheca fuliginea and in the data set with Botrytis cinerea (dose 100 ppm) were no less than 90%, no less than 80% and no less than 90%, respectively.

On to `CC(C)C1CCCc2c(NC(=O)c3ccc(Cl)nc3C(F)F)cccc21` (stereo not shown) [Example 19], for which the biological efficacy with Septoria tritici and with Puccinia recondita (dose 100 ppm) was no less than 70% throughout. The logP in data set [1] is 4.31^[a].

Take `Cc1cnc(C(F)F)c(C(=O)Nc2cccc3c2CCCC3(C)C)c1` [Example 20]: in data set [1], the logP was 3.46^[a].

These data come from patent publication US9428459B2, “Difluoromethyl-nicotinic- tetrahydronaphtyl carboxamides” (BAYER CROPSCIENCE AG, priority 2012, dated 2016).
